The record followed here is patent publication US20250270213A1, “PI3Ka INHIBITORS” (Synnovation Therapeutics, Inc., priority 2022, published 2025).

The subject of the experiment is T47D (PIK3CA H1047R) cells. The experiment can be described thus: pS473 AKT assay with 2.5% FBS, T47D cells. In kind it is cell-based. To be noted: Homo sapiens, pSer473 AKT, DMEM with 2.5% FBS, 2 h treatment, read-out: T47D_IC50. The essentials: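 In-cell chemiluminescent ELISA of AKT Ser473 phosphorylation, using anti-pSer473 primary and HRP secondary antibodies on fixed cells. T47D (PIK3CA H1047R) cells had 2 h of compound treatment in DMEM containing 2.5% FBS; IC50 derived from dose-response.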

pIC50: −log10 of the molar value. A value given as a limit tells only on which side of the number the result lay.

As for `Cc1cc(C(C)Nc2ccc(Cl)nc2-c2cnn(C)c2)c2c(c1)c(=O)n(C)c1c(C(=O)N3CC(O)C3)ncn21` (stereo not drawn) [Compound 122, 9-(1-((6-chloro-2-(1-methyl-1H-pyrazol-4-yl)pyridin-3-yl)amino)ethyl)-3-(3-hydroxyazetidine-1-carbonyl)-4,7-dimethylimidazo[1,5-a]quinazolin-5(4H)-one], the pIC50 was greater than 6.00.

Turning to `Cc1cc(C(C)Nc2ccc(Cl)nc2-c2ncn(C)n2)c2c(c1)c(=O)n(CC(F)F)c1c(C(=O)N(C)C)ncn21` (stereo not drawn) [Compound 123, 9-(1-((6-chloro-2-(1-methyl-1H-1,2,4-triazol-3-yl)pyridin-3-yl)amino)ethyl)-4-(2,2-difluoroethyl)-N,N,7-trimethyl-5-oxo-4,5-dihydroimidazo[1,5-a]quinazoline-3-carboxamide], the pIC50 is greater than 6.00.

For `Cc1cc(C(C)Nc2ccc(Cl)nc2-c2c[nH]nc2C)c2c(c1)c(=O)n(C)c1c(C(=O)N(C)C)ncn21` (stereo not drawn) [Compound 124, 9-(1-((6-Chloro-2-(3-methyl-1H-pyrazol-4-yl)pyridin-3-yl)amino)ethyl)-N,N,4,7-tetramethyl-5-oxo-4,5-dihydroimidazo[1,5-a]quinazoline-3-carboxamide], the pIC50 is greater than 6.00. With `Cc1cc(C(C)Nc2ccc(Cl)nc2-c2ccc(C#N)cc2F)c2c(c1)c(=O)n(C)c1c(C(=O)N(C)C)ncn21` (stereo not drawn) [Compound 125, 9-(1-((6-chloro-2-(4-cyano-2-fluorophenyl)pyridin-3-yl)amino)ethyl)-N,N,4,7-tetramethyl-5-oxo-4,5-dihydroimidazo[1,5-a]quinazoline-3-carboxamide], the pIC50 is greater than 6.00. As to `Cc1cc(C(C)Nc2ccc(Cl)nc2-c2ccc(C#N)cc2)c2c(c1)c(=O)n(C)c1c(C(=O)N(C)C)ncn21` (stereo not drawn) [Compound 126, 9-(1-((6-chloro-2-(4-cyanophenyl)pyridin-3-yl)amino)ethyl)-N,N,4,7-tetramethyl-5-oxo-4,5-dihydroimidazo[1,5-a]quinazoline-3-carboxamide], the pIC50 was greater than 6.00. For `Cc1cc(C(C)Nc2ccc(Cl)nc2N2CCOCC2)c2c(c1)c(=O)n(C)c1c(C(=O)N(C)C)ncn21` (stereo not drawn) [Compound 127, 9-(1-((6-chloro-2-morpholinopyridin-3-yl)amino)ethyl)-N,N,4,7-tetramethyl-5-oxo-4,5-dihydroimidazo[1,5-a]quinazoline-3-carboxamide], the pIC50 was greater than 6.00. On to `Cc1cc(C(C)Nc2ccc(F)cc2-c2cnn(C)c2)c2c(c1)c(=O)n(C)c1c(C(=O)N(C)C)ncn21` (stereo not drawn) [Compound 128, 9-(1-((4-fluoro-2-(1-methyl-1H-pyrazol-4-yl)phenyl)amino)ethyl)-N,N,4,7-tetramethyl-5-oxo-4,5-dihydroimidazo[1,5-a]quinazoline-3-carboxamide], for which the pIC50 is greater than 6.00. With `Cc1cc(C(C)Nc2ccc(Cl)nc2-c2cnn(C)c2C)c2c(c1)c(=O)n(C)c1c(C(=O)N(C)C)ncn21` (stereo not drawn) [Compound 129, 9-(1-((6-chloro-2-(1,5-dimethyl-1H-pyrazol-4-yl)pyridin-3-yl)amino)ethyl)-N,N,4,7-tetramethyl-5-oxo-4,5-dihydroimidazo[1,5-a]quinazoline-3-carboxamide], the pIC50 was greater than 6.00. Next, `Cc1cc(C(C)Nc2ccc(Cl)nc2-c2cn(C)nc2C)c2c(c1)c(=O)n(C)c1c(C(=O)N(C)C)ncn21` (stereo not drawn) [Compound 130, 9-(1-((6-chloro-2-(1,3-dimethyl-1H-pyrazol-4-yl)pyridin-3-yl)amino)ethyl)-N,N,4,7-tetramethyl-5-oxo-4,5-dihydroimidazo[1,5-a]quinazoline-3-carboxamide]: greater than 6.00; `Cc1cc(C(C)Nc2ccc(Cl)nc2-c2ncn(C)n2)c2c(c1)c(=O)n(C)c1c(C3CCN(C)CC3)ncn21` (stereo not drawn) [Compound 131, 9-(1-((6-Chloro-2-(1-methyl-1H-1,2,4-triazol-3-yl)pyridin-3-yl)amino)ethyl)-4,7-dimethyl-3-(1-methylpiperidin-4-yl) imidazo[1,5-a]quinazolin-5(4H)-one]: greater than 6.00.

In the case of `CC(=O)N1CCC(c2ncn3c4c(C(C)Nc5ccc(Cl)nc5-c5ncn(C)n5)cc(C)cc4c(=O)n(C)c23)CC1` (stereo not drawn) [Compound 132, 3-(1-Acetylpiperidin-4-yl)-9-(1-((6-chloro-2-(1-methyl-1H-1,2,4-triazol-3-yl)pyridin-3-yl)amino)ethyl)-4,7-dimethylimidazo[1,5-a]quinazolin-5(4H)-one], the pIC50 was greater than 6.00. Take `CCOC(=O)N1CCC(c2ncn3c4c(C(C)Nc5ccc(Cl)nc5-c5ncn(C)n5)cc(C)cc4c(=O)n(C)c23)CC1` (stereo not drawn) [Compound 133, ethyl 4-(9-(1-((6-chloro-2-(1-methyl-1H-1,2,4-triazol-3-yl)pyridin-3-yl)amino)ethyl)-4,7-dimethyl-5-oxo-4,5-dihydroimidazo[1,5-a]quinazolin-3-yl)piperidine-1-carboxylate]: the pIC50 is greater than 6.00. Consider `Cc1cc(C(C)Nc2ccc(Cl)nc2-c2cnn(C)c2)c2c(c1)c(=O)n(C)c1c(C3CCN(C)CC3)ncn21` (stereo not drawn) [Compound 134, 9-(1-((6-Chloro-2-(1-methyl-1H-pyrazol-4-yl)pyridin-3-yl)amino)ethyl)-4,7-dimethyl-3-(1-methylpiperidin-4-yl) imidazo[1,5-a]quinazolin-5(4H)-one], for which the pIC50 was greater than 6.00. As to `Cc1cc(C(C)Nc2ccc(Cl)nc2-c2cnn(C)c2)c2c(c1)c(=O)n(C)c1c2cnn1C1CCN(C)C1` (stereo not drawn) [Compound 135, 9-(1-((6-Chloro-2-(1-methyl-1H-pyrazol-4-yl)pyridin-3-yl)amino)ethyl)-4,7-dimethyl-3-(1-methylpyrrolidin-3-yl)-3,4-dihydro-5H-pyrazolo[3,4-c]isoquinolin-5-one], the pIC50 was greater than 6.00.

Turning to `Cc1cc(C(C)Nc2ccc(Cl)nc2-c2ncn(C)n2)c2c(c1)c(=O)n(C)c1c2cnn1C1CCN(C)C1` (stereo not drawn) [Compound 136, 9-(1-((6-chloro-2-(1-methyl-1H-1,2,4-triazol-3-yl)pyridin-3-yl)amino)ethyl)-4,7-dimethyl-3-(1-methylpyrrolidin-3-yl)-3,4-dihydro-5H-pyrazolo[3,4-c]isoquinolin-5-one], the pIC50 is greater than 6.00. Turning to `CCN1CCC(n2ncc3c4c(C(C)Nc5ccc(Cl)nc5-c5ncn(C)n5)cc(C)cc4c(=O)n(C)c32)C1` (stereo not drawn) [Compound 137, 9-(1-((6-chloro-2-(1-methyl-1H-1,2,4-triazol-3-yl)pyridin-3-yl)amino)ethyl)-3-(1-ethylpyrrolidin-3-yl)-4,7-dimethyl-3,4-dihydro-5H-pyrazolo[3,4-c]isoquinolin-5-one], the pIC50 is greater than 6.00. Consider `Cc1cc(C(C)Nc2ccc(Cl)nc2-c2ncn(C)n2)c2c(c1)c(=O)n(C)c1c2cnn1C1CCN(CCO)C1` (stereo not drawn) [Compound 138, 9-(1-((6-chloro-2-(1-methyl-1H-1,2,4-triazol-3-yl)pyridin-3-yl)amino)ethyl)-3-(1-(2-hydroxyethyl)pyrrolidin-3-yl)-4,7-dimethyl-3,4-dihydro-5H-pyrazolo[3,4-c]isoquinolin-5-one], for which the pIC50 was greater than 6.00. For the compound `[2H]C([2H])([2H])n1c(=O)c2cc(C)cc(C(C)Nc3ccc(Cl)nc3-c3nnn(C)n3)c2c2cnn(C3CCN(C)C3)c21` (stereo not drawn) [Compound 139, 9-(1-((6-chloro-2-(2-methyl-2H-tetrazol-5-yl)pyridin-3-yl)amino)ethyl)-7-methyl-4-(methyl-d3)-3-(1-methylpyrrolidin-3-yl)-3,4-dihydro-5H-pyrazolo[3,4-c]isoquinolin-5-one], the pIC50 was greater than 6.00.

As to `[2H]C([2H])([2H])n1c(=O)c2cc(C)cc(C(C)Nc3ccc(Cl)nc3-c3cnn(C)c3)c2c2cnn(C3CCN(CCO)C3)c21` (stereo not drawn) [Compound 140, 9-(1-((6-chloro-2-(1-methyl-1H-pyrazol-4-yl)pyridin-3-yl)amino)ethyl)-3-(1-(2-hydroxyethyl)pyrrolidin-3-yl)-7-methyl-4-(methyl-d3)-3,4-dihydro-5H-pyrazolo[3,4-c]isoquinolin-5-one], the pIC50 is greater than 6.00. For the compound `Cc1cc(C(C)Nc2ccc(Cl)nc2-c2ccncc2F)c2c(c1)c(=O)n(C)c1c2cnn1C1CCN(C(C)C)C1` (stereo not drawn) [Compound 141, 9-(1-((6-chloro-3′-fluoro-[2,4′-bipyridin]-3-yl)amino)ethyl)-3-(1-isopropylpyrrolidin-3-yl)-4,7-dimethyl-3,4-dihydro-5H-pyrazolo[3,4-c]isoquinolin-5-one], the pIC50 was greater than 6.00.

In the case of `Cc1cc(C(C)Nc2ccc(Cl)nc2-c2cnn(C)c2)c2c(c1)c(=O)n(C)c1c2cnn1C1CCN(CC(F)F)C1` (stereo not drawn) [Compound 142, 9-(1-((6-Chloro-2-(1-methyl-1H-pyrazol-4-yl)pyridin-3-yl)amino)ethyl)-3-(1-(2,2-difluoroethyl)pyrrolidin-3-yl)-4,7-dimethyl-3,4-dihydro-5H-pyrazolo[3,4-c]isoquinolin-5-one], the pIC50 is greater than 6.00.

Take `[2H]C([2H])([2H])n1c(=O)c2cc(C)cc(C(C)Nc3ccc(Cl)nc3-c3cnn(C)c3)c2c2cnn(C3CCN(CC(F)F)C3)c21` (stereo not drawn) [Compound 143, 9-(1-((6-chloro-2-(1-methyl-1H-pyrazol-4-yl)pyridin-3-yl)amino)ethyl)-3-(1-(2,2-difluoroethyl)pyrrolidin-3-yl)-7-methyl-4-(methyl-d3)-3,4-dihydro-5H-pyrazolo[3,4-c]isoquinolin-5-one]: the pIC50 is greater than 6.00. Regarding `[2H]C([2H])([2H])n1c(=O)c2cc(C)cc(C(C)Nc3ccc(Cl)nc3-c3cnn(C)c3)c2c2cnn(C3CCN(CC#N)C3)c21` (stereo not drawn) [Compound 144, 2-(3-(9-(1-((6-chloro-2-(1-methyl-1H-pyrazol-4-yl)pyridin-3-yl)amino)ethyl)-7-methyl-4-(methyl-d3)-5-oxo-4,5-dihydro-3H-pyrazolo[3,4-c]isoquinolin-3-yl)pyrrolidin-1-yl)acetonitrile], the pIC50 was greater than 6.00. Consider `CCn1c(=O)c2cc(C)cc(C(C)Nc3ccc(Cl)nc3-c3ncn(C)n3)c2c2cnn(C3CCN(CCO)C3)c21` (stereo not drawn) [Compound 145, 9-(1-((6-Chloro-2-(1-methyl-1H-1,2,4-triazol-3-yl)pyridin-3-yl)amino)ethyl)-4-ethyl-3-(1-(2-hydroxyethyl)pyrrolidin-3-yl)-7-methyl-3,4-dihydro-5H-pyrazolo[3,4-c]isoquinolin-5-one], for which the pIC50 is greater than 6.00.
